Source: the NIST ThermoML archive (doi:10.1016/j.fluid.2015.03.016)
Where “and” joins values, the source holds several entries; their conditions need not be identical. Equal entries are not always repeated. Numbers after ± are expanded uncertainties.

Settings: Liquid, Vibrating wire viscometry

CCCCOC(=O)CCCCC(=O)OCCCC [dibutyl hexanedioate]
Settings	viscosity
343.15 K, 20270 kPa	2.331 ± 0.042 mPa·s
343.15 K, 20280 kPa	2.335 ± 0.042 mPa·s
343.15 K, 30090 kPa	2.562 ± 0.043 mPa·s
343.15 K, 30130 kPa	2.561 ± 0.043 mPa·s
343.15 K, 30140 kPa	2.566 ± 0.043 mPa·s
343.15 K, 30150 kPa	2.561 ± 0.043 mPa·s and 2.564 ± 0.043 mPa·s
343.15 K, 30160 kPa	2.566 ± 0.043 mPa·s
343.15 K, 39830 kPa	2.806 ± 0.047 mPa·s
343.15 K, 50080 kPa	3.08 ± 0.051 mPa·s and 3.083 ± 0.051 mPa·s
343.15 K, 65610 kPa	3.482 ± 0.058 mPa·s
343.15 K, 65620 kPa	3.49 ± 0.058 mPa·s
358.15 K, 2510 kPa	1.559 ± 0.026 mPa·s
358.15 K, 2520 kPa	1.559 ± 0.026 mPa·s and 1.56 ± 0.026 mPa·s
358.15 K, 5050 kPa	1.594 ± 0.037 mPa·s and 1.593 ± 0.037 mPa·s
358.15 K, 5060 kPa	1.594 ± 0.038 mPa·s and 1.595 ± 0.038 mPa·s
358.15 K, 5240 kPa	1.601 ± 0.036 mPa·s
358.15 K, 9930 kPa	1.688 ± 0.029 mPa·s
358.15 K, 10010 kPa	1.69 ± 0.029 mPa·s
358.15 K, 15060 kPa	1.769 ± 0.03 mPa·s and 1.766 ± 0.03 mPa·s and 1.764 ± 0.03 mPa·s
358.15 K, 15100 kPa	1.768 ± 0.03 mPa·s
358.15 K, 15130 kPa	1.765 ± 0.03 mPa·s
358.15 K, 20130 kPa	1.863 ± 0.031 mPa·s
358.15 K, 30280 kPa	2.045 ± 0.034 mPa·s
358.15 K, 30290 kPa	2.042 ± 0.034 mPa·s and 2.044 ± 0.034 mPa·s
358.15 K, 30300 kPa	2.041 ± 0.034 mPa·s
358.15 K, 30310 kPa	2.043 ± 0.034 mPa·s
358.15 K, 30320 kPa	2.046 ± 0.034 mPa·s
358.15 K, 39960 kPa	2.223 ± 0.037 mPa·s
358.15 K, 39990 kPa	2.219 ± 0.037 mPa·s
358.15 K, 40010 kPa	2.219 ± 0.037 mPa·s
358.15 K, 40040 kPa	2.222 ± 0.037 mPa·s
358.15 K, 40060 kPa	2.219 ± 0.037 mPa·s
358.16 K, 1080 kPa	1.521 ± 0.026 mPa·s
358.16 K, 1090 kPa	1.524 ± 0.026 mPa·s and 1.523 ± 0.026 mPa·s and 1.521 ± 0.026 mPa·s
358.16 K, 2510 kPa	1.559 ± 0.026 mPa·s
358.16 K, 2540 kPa	1.558 ± 0.026 mPa·s
358.16 K, 5180 kPa	1.6 ± 0.027 mPa·s
358.16 K, 5200 kPa	1.597 ± 0.027 mPa·s
358.16 K, 5240 kPa	1.599 ± 0.037 mPa·s
358.16 K, 7560 kPa	1.645 ± 0.028 mPa·s and 1.644 ± 0.028 mPa·s and 1.643 ± 0.028 mPa·s
358.16 K, 20120 kPa	1.868 ± 0.031 mPa·s and 1.866 ± 0.031 mPa·s
358.16 K, 20130 kPa	1.868 ± 0.031 mPa·s
358.16 K, 20160 kPa	1.863 ± 0.031 mPa·s
358.16 K, 40080 kPa	2.223 ± 0.037 mPa·s
358.16 K, 50160 kPa	2.426 ± 0.041 mPa·s and 2.429 ± 0.041 mPa·s
358.16 K, 50170 kPa	2.424 ± 0.04 mPa·s and 2.427 ± 0.041 mPa·s
358.16 K, 65550 kPa	2.761 ± 0.046 mPa·s and 2.757 ± 0.046 mPa·s and 2.758 ± 0.046 mPa·s
373.14 K, 2490 kPa	1.265 ± 0.022 mPa·s
373.14 K, 10000 kPa	1.376 ± 0.024 mPa·s and 1.374 ± 0.023 mPa·s
373.14 K, 15040 kPa	1.442 ± 0.025 mPa·s
373.14 K, 15050 kPa	1.443 ± 0.025 mPa·s
373.14 K, 29940 kPa	1.668 ± 0.028 mPa·s
373.15 K, 1060 kPa	1.253 ± 0.021 mPa·s
373.15 K, 1120 kPa	1.255 ± 0.021 mPa·s
373.15 K, 1160 kPa	1.254 ± 0.021 mPa·s
373.15 K, 2590 kPa	1.264 ± 0.022 mPa·s
373.15 K, 2600 kPa	1.264 ± 0.022 mPa·s
373.15 K, 5080 kPa	1.302 ± 0.022 mPa·s and 1.301 ± 0.022 mPa·s and 1.303 ± 0.022 mPa·s
373.15 K, 7600 kPa	1.342 ± 0.023 mPa·s and 1.341 ± 0.023 mPa·s
373.15 K, 7610 kPa	1.341 ± 0.023 mPa·s
373.15 K, 10090 kPa	1.375 ± 0.024 mPa·s
373.15 K, 10130 kPa	1.374 ± 0.023 mPa·s
373.15 K, 15060 kPa	1.441 ± 0.025 mPa·s
373.15 K, 15070 kPa	1.443 ± 0.025 mPa·s
373.15 K, 20220 kPa	1.518 ± 0.026 mPa·s
373.15 K, 20230 kPa	1.518 ± 0.026 mPa·s
373.15 K, 20250 kPa	1.516 ± 0.026 mPa·s
373.15 K, 29920 kPa	1.669 ± 0.028 mPa·s
373.15 K, 29980 kPa	1.667 ± 0.028 mPa·s
373.15 K, 30000 kPa	1.667 ± 0.028 mPa·s
373.15 K, 50030 kPa	1.976 ± 0.033 mPa·s [middle of 4 runs]
373.15 K, 65350 kPa	2.231 ± 0.037 mPa·s and 2.229 ± 0.037 mPa·s
